From ChEMBL document CHEMBL1201862, “PubChem BioAssay data set” (2004)
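Interpolation was linear, between the two tested concentrations surrounding the appropriate level; five concentrations were tested over 48 hours in 96-well plates. Here, GI50 denotes the concentration required for 50% inhibition of growth.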 Activity calls are given as the source filed them. Rule as the data show it: active = GI50 up to about 1.1 µM and inactive = higher.

Assays:
Assay in all cases: NCI tumour cell line growth inhibition, 48 h
SF-268 = tested on: SF-268
UO-31 = tested on: UO-31
Hs-578T = tested on: Hs-578T
SF-295 = tested on: SF-295
SF-539 = tested on: SF-539
MDA-MB-435 = tested on: MDA-MB-435
EKVX = tested on: EKVX
OVCAR-4 = tested on: OVCAR-4
SR = tested on: SR
M14 = tested on: M14
HCC 2998 = tested on: HCC 2998
NCI-H522 = tested on: NCI-H522
NCI/ADR-RES = tested on: NCI/ADR-RES
PC-3 = tested on: PC-3
A498 = tested on: A498
SNB-75 = tested on: SNB-75
A549 = tested on: A549
SN12C = tested on: SN12C
OVCAR-8 = tested on: OVCAR-8
HT-29 = tested on: HT-29
MOLT-4 = tested on: MOLT-4
U-251 = tested on: U-251
RXF 393 = tested on: RXF 393
SK-MEL-28 = tested on: SK-MEL-28
HL-60 = tested on: HL-60
HOP-92 = tested on: HOP-92
MDA-MB-231 = tested on: MDA-MB-231
T47D = tested on: T47D
KM12 = tested on: KM12
MDA-N = tested on: MDA-N
NCI-H460 = tested on: NCI-H460
SK-OV-3 = tested on: SK-OV-3
DU-145 = tested on: DU-145
OVCAR-5 = tested on: OVCAR-5
CCRF-CEM = tested on: CCRF-CEM
RPMI-8226 = tested on: RPMI-8226
NCI-H226 = tested on: NCI-H226
IGROV-1 = tested on: IGROV-1
TK-10 = tested on: TK-10
SK-MEL-5 = tested on: SK-MEL-5
NCI-H23 = tested on: NCI-H23
UACC-62 = tested on: UACC-62
ACHN = tested on: ACHN
OVCAR-3 = tested on: OVCAR-3
COLO 205 = tested on: COLO 205
SNB-19 = tested on: SNB-19
CAKI-1 = tested on: CAKI-1
HCT-116 = tested on: HCT-116
SK-MEL-2 = tested on: SK-MEL-2
LOX IMVI = tested on: LOX IMVI
UACC-257 = tested on: UACC-257
786-0 = tested on: 786-0
SW-620 = tested on: SW-620
Malme-3M = tested on: Malme-3M
K562 = tested on: K562
HCT-15 = tested on: HCT-15
MCF7 = tested on: MCF7
HOP-62 = tested on: HOP-62
BT-549 = tested on: BT-549

SMILES: CC1=NN(C(=O)CC(=O)Nc2cccc(C)c2)C(=O)C1/N=N/c1ccc(S(=O)(=O)CCOS(=O)(=O)O)cc1 (centres undefined)
- GI50 (SF-268): 5.57 µM (inactive)
- GI50 (UO-31): 2.93 µM (inactive)
- GI50 (Hs-578T): 4.18 µM (inactive)
- GI50 (SF-295): 2.82 µM (inactive)
- GI50 (SF-539): 2 µM (inactive)
- GI50 (MDA-MB-435): 0.211 µM (active)
- GI50 (EKVX): 32.2 µM (inactive)
- GI50 (OVCAR-4): 9.42 µM (inactive)
- GI50 (SR): 0.49 µM (active)
- GI50 (M14): 0.484 µM (active)
- GI50 (HCC 2998): 2.17 µM (inactive)
- GI50 (NCI-H522): 0.291 µM (active)
- GI50 (NCI/ADR-RES): 0.344 µM (active)
- GI50 (PC-3): 0.359 µM (active)
- GI50 (A498): 11.5 µM (inactive)
- GI50 (SNB-75): 0.805 µM (active)
- GI50 (A549): 4.48 µM (inactive)
- GI50 (SN12C): 0.471 µM (active)
- GI50 (OVCAR-8): 0.486 µM (active)
- GI50 (HT-29): 0.767 µM (active)
- GI50 (MOLT-4): 0.406 µM (active)
- GI50 (U-251): 3.32 µM (inactive)
- GI50 (RXF 393): 1.62 µM (inactive)
- GI50 (SK-MEL-28): 3.9 µM (inactive)
- GI50 (HL-60): 1.33 µM (inactive)
- GI50 (HOP-92): 2.25 µM (inactive)
- GI50 (MDA-MB-231): 0.275 µM (active)
- GI50 (T47D): > 34.5 µM (inactive)
- GI50 (KM12): 2.51 µM (inactive)
- GI50 (MDA-N): 0.309 µM (active)
- GI50 (NCI-H460): 3.24 µM (inactive)
- GI50 (SK-OV-3): 0.326 µM (active)
- GI50 (DU-145): 32.3 µM (inactive)
- GI50 (OVCAR-5): 36.6 µM (inactive)
- GI50 (CCRF-CEM): 0.422 µM (active)
- GI50 (RPMI-8226): 1.86 µM (inactive)
- GI50 (NCI-H226): 0.718 µM (active)
- GI50 (IGROV-1): 0.63 µM (active)
- GI50 (TK-10): 13.1 µM (inactive)
- GI50 (SK-MEL-5): 0.369 µM (active)
- GI50 (NCI-H23): 0.76 µM (active)
- GI50 (UACC-62): 1.81 µM (inactive)
- GI50 (ACHN): 4.72 µM (inactive)
- GI50 (OVCAR-3): 3.65 µM (inactive)
- GI50 (COLO 205): 2.45 µM (inactive)
- GI50 (SNB-19): 4 µM (inactive)
- GI50 (CAKI-1): 0.546 µM (active)
- GI50 (HCT-116): 0.373 µM (active)
- GI50 (SK-MEL-2): 0.313 µM (active)
- GI50 (LOX IMVI): 0.345 µM (active)
- GI50 (UACC-257): 7.71 µM (inactive)
- GI50 (786-0): 0.463 µM (active)
- GI50 (SW-620): 0.406 µM (active)
- GI50 (Malme-3M): 0.839 µM (active)
- GI50 (K562): 0.388 µM (active)
- GI50 (HCT-15): 0.319 µM
- GI50 (MCF7): 0.746 µM (active)
- GI50 (HOP-62): 5.47 µM (inactive)

SMILES: Cc1ccc(Cl)c2c(=O)c3ccc([N+](=O)[O-])cc3sc12
- GI50 (UO-31): > 100 µM (inactive)
- GI50 (SF-295): 82.2 µM (inactive)
- GI50 (PC-3): > 100 µM (inactive)
- GI50 (A549): > 100 µM (inactive)
- GI50 (OVCAR-8): > 100 µM (inactive)
- GI50 (MOLT-4): > 100 µM (inactive)
- GI50 (KM12): > 100 µM (inactive)
- GI50 (MDA-N): > 100 µM (inactive)
- GI50 (DU-145): > 100 µM (inactive)
- GI50 (OVCAR-5): > 100 µM (inactive)
- GI50 (RPMI-8226): > 100 µM (inactive)
- GI50 (SK-MEL-5): > 100 µM (inactive)
- GI50 (NCI-H23): > 100 µM (inactive)
- GI50 (UACC-62): > 100 µM (inactive)
- GI50 (ACHN): > 100 µM (inactive)
- GI50 (OVCAR-3): > 100 µM (inactive)
- GI50 (COLO 205): > 100 µM (inactive)
- GI50 (SNB-19): > 100 µM (inactive)
- GI50 (CAKI-1): > 100 µM (inactive)
- GI50 (HCT-116): > 100 µM (inactive)
- GI50 (SK-MEL-2): > 100 µM (inactive)
- GI50 (UACC-257): > 100 µM (inactive)
- GI50 (786-0): > 100 µM (inactive)
- GI50 (BT-549): > 100 µM (inactive)
- GI50 (K562): > 100 µM (inactive)
- GI50 (HCT-15): > 100 µM
- GI50 (MCF7): > 100 µM (inactive)
- GI50 (HOP-62): 79.8 µM (inactive)

SMILES: [N-]=[N+]=C1N=CN=C1c1nc[nH]n1
- GI50 (UO-31): 19.6 µM (inactive)
- GI50 (SF-295): 82.4 µM (inactive)
- GI50 (SF-539): 15.3 µM (inactive)
- GI50 (MDA-MB-435): 31.3 µM (inactive)
- GI50 (EKVX): 40 µM (inactive)
- GI50 (OVCAR-4): 31.8 µM (inactive)
- GI50 (M14): 40.6 µM (inactive)
- GI50 (HCC 2998): 63 µM (inactive)
- GI50 (NCI-H522): 30.7 µM (inactive)
- GI50 (NCI/ADR-RES): 22.1 µM (inactive)
- GI50 (PC-3): > 100 µM (inactive)
- GI50 (A498): 20.2 µM (inactive)
- GI50 (SNB-75): 32.3 µM (inactive)
- GI50 (A549): > 100 µM (inactive)
- GI50 (SN12C): 20.9 µM (inactive)
- GI50 (OVCAR-8): 21.4 µM (inactive)
- GI50 (HT-29): > 100 µM (inactive)
- GI50 (MOLT-4): 6.27 µM (inactive)
- GI50 (U-251): 27 µM (inactive)
- GI50 (RXF 393): 48.8 µM (inactive)
- GI50 (SK-MEL-28): 76.7 µM (inactive)
- GI50 (HL-60): 5.83 µM (inactive)
- GI50 (HOP-92): 12.4 µM (inactive)
- GI50 (MDA-MB-231): 29 µM (inactive)
- GI50 (T47D): 17.4 µM (inactive)
- GI50 (KM12): 93.5 µM (inactive)
- GI50 (MDA-N): 41.9 µM (inactive)
- GI50 (SK-OV-3): > 100 µM (inactive)
- GI50 (DU-145): 48.5 µM (inactive)
- GI50 (CCRF-CEM): 3.98 µM (inactive)
- GI50 (RPMI-8226): 10.8 µM (inactive)
- GI50 (NCI-H226): > 100 µM (inactive)
- GI50 (IGROV-1): 29 µM (inactive)
- GI50 (TK-10): 51.2 µM (inactive)
- GI50 (SK-MEL-5): 57.8 µM (inactive)
- GI50 (NCI-H23): 34.1 µM (inactive)
- GI50 (UACC-62): 16.6 µM (inactive)
- GI50 (ACHN): 39 µM (inactive)
- GI50 (OVCAR-3): 32.2 µM (inactive)
- GI50 (COLO 205): 45.1 µM (inactive)
- GI50 (SNB-19): 80.2 µM (inactive)
- GI50 (CAKI-1): 6.31 µM (inactive)
- GI50 (HCT-116): 25 µM (inactive)
- GI50 (SK-MEL-2): 94.8 µM (inactive)
- GI50 (LOX IMVI): 12 µM (inactive)
- GI50 (UACC-257): 57 µM (inactive)
- GI50 (786-0): 21.9 µM (inactive)
- GI50 (SW-620): 22.1 µM (inactive)
- GI50 (Malme-3M): 10.9 µM (inactive)
- GI50 (K562): 14.9 µM (inactive)
- GI50 (HCT-15): 63 µM
- GI50 (MCF7): 81.1 µM (inactive)
- GI50 (HOP-62): 35.7 µM (inactive)
